Earlier results as cited in patent US20260345597A1, “LONG-ACTING AND SUSTAINED-RELEASE PREPARATION COMPOSITION OF LUMATEPERONE AND PREPARATION METHOD THEREOF” (SICHUAN KELUN PHARMACEUTICAL RESEARCH INSTITUTE CO., LTD., priority 2023, published 2026).

System: patients with schizophrenia
Settings: background

## CN1CCN2c3c(cccc31)[C@@H]1CN(CCCC(=O)c3ccc(F)cc3)CC[C@@H]12 [lumateperone]
  adverse reactions such as weight gain and abnormal lipid metabolism: less likely to cause adverse reactions such as weight gain and abnormal lipid metabolism
Patients with schizophrenia
  effect on symptoms of schizophrenia: alleviating positive symptoms while improving negative symptoms, depressive symptoms, and social functioning
  safety and tolerability profile: superior safety and tolerability profiles
